What was measured:
Human A2BR = molecular target: T1, Human A2BR (Homo sapiens, UniProt P29275); assay: Human 2B Adenosine Receptor CHO-K1 cAMP antagonist functional assay; format: cell-based; settings: cAMP antagonist functional assay vs NECA, CHO-K1 cells stably expressing Human A2BR; read-out: A2B (Potency: A2BR KB)
T1 sequence (P29275 1-332): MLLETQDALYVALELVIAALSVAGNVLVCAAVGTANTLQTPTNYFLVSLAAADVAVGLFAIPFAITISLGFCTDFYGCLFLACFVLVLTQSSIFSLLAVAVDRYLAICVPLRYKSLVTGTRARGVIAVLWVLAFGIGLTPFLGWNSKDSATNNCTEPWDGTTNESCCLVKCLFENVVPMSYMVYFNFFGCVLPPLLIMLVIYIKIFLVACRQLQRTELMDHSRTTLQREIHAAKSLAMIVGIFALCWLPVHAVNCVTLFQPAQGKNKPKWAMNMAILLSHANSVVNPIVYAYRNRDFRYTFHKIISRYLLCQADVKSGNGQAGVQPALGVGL
Experimental: Measurement of the Adenosine Receptor Activity of Compounds Using a Human 2B Adenosine Receptor CHO-K1 cAMP Functional Assay
CHO-K1 cells stably expressing Human Adenosine 2B Receptor (A2BR: Cat. No. M000329, GenScript) were purchased from GenScript Inc., Piscataway, NJ 08854, USA.
The cAMP antagonist functional assay (Perkin Elmer) was performed on CHO-K1 cells stably expressing Human A2BR. 1×10^6 cells were seeded in T75 flasks and cultured at 37° C. and 5% CO2 overnight. 2,000-4,000 cells/well of stably-expressed A2bR CHO-K1 cells were then seeded to a white 384-well Opti plate followed by compound 1 incubation at various concentrations (ranging from 1 μM to 0 μM) at 37° C. for 1 hour.
(§1) A 1:2 serial dilution of NECA (Sigma Aldrich) from 1 μM to 0 μM was added to the cell stimulation mixture and incubated for 30 min at 37° C. After 30 min incubation, 5 μL of Ulight-anti-cAMP (1:150 dilution with conjugate and lysis buffer provided by Perkin Elmer) and 5 μL of Eu-cAMP tracer (1:50 dilution with conjugate and lysis buffer provided by Perkin Elmer) was added the cells and incubated for an hour. FRET signal was detected with an Envision multilabel plate reader (Perkin Elmer) loaded with 615 nm […] filters and 665 nm emission filters.
(§2) Data analysis was performed using on GraphPad Prism (version 7.02) to determine the KB of the test compounds.

Human A2AR = molecular target: T2, Human A2AR (Homo sapiens, UniProt P29274); assay: Human 2A Adenosine Receptor (A2aR) CHO-TREx cAMP antagonist functional assay; format: cell-based; settings: cAMP antagonist functional assay vs NECA, CHO-T-REx cells induced to express Human A2AR; read-out: A2A (Potency: A2AR KB)
T2 construct: expressed in transfected cells; host or cells: CHO-T-REx cells, tetracycline-inducible expression
Experimental: Measurement of the Adenosine Receptor Activity of Compounds Using a Human 2A Adenosine Receptor (A2aR) CHO-TREx cAMP Functional Assay
The cAMP antagonist functional assay (Perkin Elmer) was performed on CHO-T-REx cells induced to express Human A2AR. Cells were seeded to a white 384-well Opti plate at a density of 1,000 to 2,500 cells per well followed by incubation with various concentrations of compound (ranging from 1 μM to 0 μM) at 37° C. for 1 hour.
as §1, §2

T2 sequence (P29274 whole entry): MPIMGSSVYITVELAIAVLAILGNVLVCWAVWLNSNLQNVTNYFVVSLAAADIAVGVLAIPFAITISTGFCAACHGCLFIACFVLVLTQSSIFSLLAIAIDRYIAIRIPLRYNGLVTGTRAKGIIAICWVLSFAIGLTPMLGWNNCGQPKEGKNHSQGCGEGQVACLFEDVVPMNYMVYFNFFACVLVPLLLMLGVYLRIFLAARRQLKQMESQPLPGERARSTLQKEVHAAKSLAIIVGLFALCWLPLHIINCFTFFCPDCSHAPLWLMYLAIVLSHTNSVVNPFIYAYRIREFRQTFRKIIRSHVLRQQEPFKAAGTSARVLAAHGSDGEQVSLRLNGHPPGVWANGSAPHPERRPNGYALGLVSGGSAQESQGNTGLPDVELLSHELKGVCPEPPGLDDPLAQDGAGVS

| Compound | Kb (Human A2BR) | Kb (Human A2AR) |
| --- | --- | --- |
| COc1cccc2c(-c3cn(Cc4cccn([C@@H](C)C(C)(C)O)c4=O)nn3)nc(N)nc12 [Example 26, 1-[(S)-2-Hydroxy-1,2-dimethylpropyl]-3-{[4-(2-amino-8-methoxy-4-quinazolinyl)-1H-1,2,3-triazol-1-yl]methyl}-1H-pyridin-2-one] | < 100 nM | < 100 nM |
| COC[C@H](C)n1cccc(Cn2cc(-c3nc(N)nc4c(OC)cccc34)nn2)c1=O [Example 25] | 100 to 1000 nM | < 100 nM |
| COc1cccc2c(-c3cn(Cc4cccn([C@H](C)C5CCOCC5)c4=O)nn3)nc(N)nc12 [Example 28] | < 100 nM | < 100 nM |
| COc1cccc2c(-c3cn(Cc4cccn(CC5CCOCC5)c4=O)nn3)nc(N)nc12 [Example 21] | < 100 nM | < 100 nM |
| COc1cccc2c(-c3cn(Cc4cccn(CC(C)(C)O)c4=O)nn3)nc(N)nc12 [Example 3] | < 100 nM | < 100 nM |
| COc1cccc2c(-c3cn(Cc4cccn(C(C)C)c4=O)nn3)cc(N)nc12 [Example 8] | 100 to 1000 nM | < 100 nM |
| CCn1cccc(Cn2cc(-c3nc(N)nc4c(OC)cccc34)cn2)c1=O [Example 40, 3-{[4-(2-Amino-8-methoxy-4-quinazolinyl)-1H-pyrazol-1-yl]methyl}-1-ethyl-1H-pyridin-2-one] | 100 to 1000 nM | < 100 nM |
| 1-[(S)-Tetrahydro-2H-pyran-3-yl]-3-{[4-(2-amino-8-methoxy-4-quinazolinyl)-1H-1,2,3-triazol-1-yl]methyl}-1H-pyridin-2-one [Example 32] | < 100 nM | < 100 nM |
| COC[C@@H](C)n1cccc(Cn2cc(-c3nc(N)nc4c(OC)cccc34)nn2)c1=O [Example 24] | < 100 nM | < 100 nM |
| COc1cccc2c(-c3cn(Cc4cccn([C@@H](C)C5CCOCC5)c4=O)nn3)nc(N)nc12 [Example 29] | < 100 nM | < 100 nM |
| 3-{[4-(2-Amino-8-methoxy-4-quinazolinyl)-1H-1,2,3-triazol-1-yl]methyl}-1-(cyclopropylmethyl)-1H-pyridin-2-one [Example 4] | 100 to 1000 nM | < 100 nM |
| Cc1cccc2c(-c3cn(Cc4cccn(C(C)C)c4=O)nn3)nc(N)nc12 [Example 6] | < 100 nM | < 100 nM |
| COc1cccc2c(-c3cn(Cc4cccn([C@H](C)C(C)(C)O)c4=O)nn3)nc(N)nc12 [Example 27, 1-[(R)-2-Hydroxy-1,2-dimethylpropyl]-3-{[4-(2-amino-8-methoxy-4-quinazolinyl)-1H-1,2,3-triazol-1-yl]methyl}-1H-pyridin-2-one] | 100 to 1000 nM | < 100 nM |
